Bounds are passed on as bounds.

Assay [1] deals with T1, recombinant human PAI-1 (Homo sapiens, UniProt P05121). Description: PAI-1 inhibitory activity, Test Method A (tPA fluorogenic substrate, Tris buffer pH8.0, 37 C). The format is biochemical. As to conditions: for IC50: 50% inhibitory concentration of PAI-1 activity, according to the aforementioned method; for Inhibitory Ratio at 25 μM (%): Test Method A.
Assay [2] has as its target T1, recombinant human PAI-1. Description: Inhibition of complex formation of PAI-1 and tPA (SDS-PAGE). It is filed as biochemical. As to conditions: 100 μM concentration. The protocol:
To a 2.5 μL solution obtained by diluting a DMSO solution of the test compound at 4-fold concentration of the test concentration with PBS(-), 5 μL of 150 nM recombinant human PAI-1 solution adjusted with a phosphate buffer (pH6.6, 0.05M Sodium Phosphate, 0.1 M NaCl, 1 mM EDTA) was added, and reacted for 5 minutes at 37° C. […] of 600 nM recombinant human one-chain tPA solution adjusted with PBS(-) was added, and further reacted for 5 minutes at 37° C. 10 μL of stop buffer (1.25 mM Tris-HCl pH6.8, 4% SDS, 0.01% BPB, 14% Glycerol) was added, heated for 30 seconds at 100° C., and then the total amount of 20 μL was applied to 10% SDS-PAGE gel electrophoresis. When the test compound was not added as being a control, a band of PAI-1-tPA complex was observed.

T1 sequence (P05121 24-402): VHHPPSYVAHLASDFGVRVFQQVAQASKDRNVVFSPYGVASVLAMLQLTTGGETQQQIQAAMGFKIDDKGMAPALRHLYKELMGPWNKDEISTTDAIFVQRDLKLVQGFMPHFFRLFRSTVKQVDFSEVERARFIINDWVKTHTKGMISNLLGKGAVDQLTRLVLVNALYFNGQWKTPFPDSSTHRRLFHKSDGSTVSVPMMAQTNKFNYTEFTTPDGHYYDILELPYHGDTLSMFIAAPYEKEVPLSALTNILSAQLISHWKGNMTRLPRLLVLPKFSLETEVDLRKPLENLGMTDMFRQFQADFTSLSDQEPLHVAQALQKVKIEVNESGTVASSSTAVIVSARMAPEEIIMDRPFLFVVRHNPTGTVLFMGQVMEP

In the case of `CCOC1=NN(c2ccc([N+](=O)[O-])cc2)C(=O)C1=Cc1cc(O)c(O)cc1O` [compound 156], the IC50 in assay [1] came to 0.3 µM. Besides, the “Inhibitory Ratio at 25 μM (%)” value in assay [1] (test compound 25 μM) is 70%. Moreover, the “inhibition of the complex formation of PAI-1 and tPA observed with SDS-PAGE” value (shortened to “inhibition”) in assay [2] is given as “completely inhibited”.
On to `O=C(Cc1cccc(Oc2ccccc2)c1)Nc1ccc(CN2C(=O)SC(=Cc3cccc(O)c3O)C2=O)cc1` [compound 312, 5-(2,3-Dihydroxybenzylidene)-3-{4-[(3-phenoxyphenyl)acetylamino]-benzyl}thiazolidine-2,4-dione], for which, in assay [1] (25 μM test compound), the “Inhibitory Ratio at 25 μM (%)” value is given as above 99%. For the same compound, the IC50 in assay [1] came out at 0.29 µM. Moreover, in assay [2], the “inhibition” value is listed as “completely inhibited”.
With `O=C(Nc1ccc(CN2C(=O)SC(=Cc3cccc(O)c3O)C2=O)cc1)c1ccc(Oc2ccccc2)cc1` [compound 316, 5-(2,3-Dihydroxybenzylidene)-3-[4-(4-phenoxybenzoylamino)benzyl]-thiazolidine-2,4-dione], in assay [1] (25 μM test compound), the “Inhibitory Ratio at 25 μM (%)” value is recorded as above 99%. Moreover, the IC50 in assay [1] is 0.46 µM. Besides, in assay [2], the “inhibition” value was “completely inhibited”.
For `O=C(Cc1cc(C(F)(F)F)cc(C(F)(F)F)c1)Nc1ccc(CN2C(=O)SC(=Cc3cccc(O)c3O)C2=O)cc1` [compound 317, 5-(2,3-Dihydroxybenzylidene)-3-{4-[3,5-Bis(trifluoromethyl)-phenylacetylamino]benzyl}thiazolidine-2,4-dione], in that order: above 99%, 0.42 µM and “completely inhibited”.
In the same order, the values of `O=C(Cc1cccc(Oc2ccccc2)c1)Nc1cccc(CN2C(=O)SC(=Cc3cccc(O)c3O)C2=O)c1` [compound 320, 5-(2,3-Dihydroxybenzylidene)-3-{3-[(3-phenoxyphenyl)acetylamino]-benzyl}thiazolidine-2,4-dione] are above 99%, 0.34 µM and “completely inhibited”.
With `N=C(N)NCCC[C@H](N)C(=O)O.N=C(N)NCCC[C@H](N)C(=O)O.N=C(N)NCCC[C@H](N)C(=O)O.O=C1SC(=Cc2cc(O)c(O)c(O)c2)C(=O)N1Cc1ccc(Cl)c(Cl)c1` [compound 334, tri(L-(+)-arginine) salt of 5-(3,4,5-trihydroxybenzylidene)-3-(3,4-dichlorobenzyl)thiazolidine-2,4-dione], the “Inhibitory Ratio at 25 μM (%)” value in assay [1] (25 μM test compound) is above 99%. In addition, the IC50 in assay [1] is 0.54 µM. In assay [2], the “inhibition” value is reported as “completely inhibited”.
As to `O=C1SC(=Cc2cc(O)c(O)c([N+](=O)[O-])c2)C(=O)N1Cc1ccc(Cl)c(Cl)c1` [compound 347], the “Inhibitory Ratio at 25 μM (%)” value in assay [1] (25 μM test compound) is recorded as above 99%. Also, the IC50 in assay [1] is 0.45 µM. In addition, the “inhibition” value in assay [2] is on record as “completely inhibited”.
With `COc1cc(C=C2SC(=O)N(Cc3ccc(Cl)c(Cl)c3)C2=O)cc(C(=O)Nc2ccc(O)c(O)c2)c1O` [compound 349, 5-[3-Methoxy-4-hydroxy-5-(3,4-dihydroxyphenylcarbamoyl)-benzylidene]-3-(3,4-dichlorobenzyl)thiazolidine-2,4-dione], in assay [1] (25 μM test compound), the “Inhibitory Ratio at 25 μM (%)” value is given as 87%. Moreover, in assay [1], the IC50 stood at 0.57 µM. The “inhibition” value in assay [2] was “completely inhibited”.
Consider `O=C(Nc1ccc(O)c(O)c1)c1cc(C=C2SC(=O)N(Cc3ccc(Cl)c(Cl)c3)C2=O)ccc1O` [compound 352], for which the “Inhibitory Ratio at 25 μM (%)” value in assay [1] (25 μM test compound) came to 66%. The “inhibition” value in assay [2] was “completely inhibited”.
In the same order, the values of `O=C(Nc1ccc(O)c(O)c1)c1cc(C=C2SC(=O)N(Cc3cc(C(F)(F)F)cc(C(F)(F)F)c3)C2=O)ccc1O` [compound 384] are 91% and “completely inhibited”.
For `Cc1cc(C=C2SC(=O)N(Cc3ccc(Cl)c(Cl)c3)C2=O)cc(C(=O)Nc2ccc(O)c(O)c2)c1O` [compound 401, 5-[3-Methyl-4-hydroxy-5-(3,4-dihydroxyphenylcarbamoyl)-benzylidene]-3-(3,4-dichlorobenzyl)thiazolidine-2,4-dione], in assay [1] (25 μM test compound), the “Inhibitory Ratio at 25 μM (%)” value is reported as 96%. The “inhibition” value in assay [2] was “completely inhibited”.
As to `O=C(Nc1ccc(O)c(O)c1)c1cc(C=C2SC(=O)N(Cc3ccc(C(F)(F)F)cc3)C2=O)ccc1O` [compound 402], the “Inhibitory Ratio at 25 μM (%)” value in assay [1] (25 μM test compound) is reported as 92%. Further, the “inhibition” value in assay [2] was “completely inhibited”.
For the compound `O=C(Nc1cc(C(F)(F)F)ccc1Cl)c1cc(C=C2SC(=O)N(Cc3ccc(Cl)c(Cl)c3)C2=O)ccc1O` [compound 423], the “Inhibitory Ratio at 25 μM (%)” value in assay [1] (25 μM test compound) is 75%. In addition, the “inhibition” value in assay [2] is “completely inhibited”.
For `O=C(Nc1cc(O)c(O)c(O)c1)c1cc(C=C2SC(=O)N(Cc3ccc(Cl)c(Cl)c3)C2=O)ccc1O` [compound 435], the “Inhibitory Ratio at 25 μM (%)” value in assay [1] (25 μM test compound) is listed as 71%. The “inhibition” value in assay [2] is “completely inhibited”.
For `O=C(Nc1cccc(O)c1O)c1cc(C=C2SC(=O)N(Cc3ccc(Cl)c(Cl)c3)C2=O)ccc1O` [compound 436], the “Inhibitory Ratio at 25 μM (%)” value in assay [1] (25 μM test compound) was above 99%. Besides, the half-maximal inhibitory concentration (IC50) in assay [1] turned out to be 0.21 µM. In addition, the “inhibition” value in assay [2] was “completely inhibited”.
Regarding `O=C(Nc1cc(Cl)ccc1Cl)c1cc(C=C2SC(=O)N(Cc3ccc(Cl)c(Cl)c3)C2=O)ccc1O` [compound 441], the “Inhibitory Ratio at 25 μM (%)” value in assay [1] (25 μM test compound) stood at 71%. Also, the IC50 in assay [1] was found to be 0.48 µM. Besides, the “inhibition” value in assay [2] is on record as “completely inhibited”.
For `O=C(Nc1cc([N+](=O)[O-])ccc1Cl)c1cc(C=C2SC(=O)N(Cc3ccc(Cl)c(Cl)c3)C2=O)ccc1O` [compound 473], in that order: 70%, 0.39 µM and “completely inhibited”.
With `O=C(Nc1cccc(OC(F)(F)F)c1)c1cc(C=C2SC(=O)N(Cc3ccc(Cl)c(Cl)c3)C2=O)cc(O)c1O` [compound 475], the “Inhibitory Ratio at 25 μM (%)” value in assay [1] (25 μM test compound) is listed as 53%. For the same compound, the IC50 in assay [1] is 0.52 µM. The “inhibition” value in assay [2] is “completely inhibited”.
Take `CC1=NN(c2ccc(Cl)c(Cl)c2)C(=O)C1=Cc1cc(O)c(O)cc1O` [compound 503]: the “Inhibitory Ratio at 25 μM (%)” value in assay [1] (25 μM test compound) is above 99%. Further, the “inhibition” value in assay [2] was “completely inhibited”.
Turning to `CC(C)C1=NN(c2cc(Cl)cc(Cl)c2)C(=O)C1=Cc1cc(O)c(O)cc1O` [compound 504], the “Inhibitory Ratio at 25 μM (%)” value in assay [1] (25 μM test compound) was 89%. In assay [1], the IC50 worked out at 0.29 µM. For the same compound, the “inhibition” value in assay [2] is reported as “completely inhibited”.
With `CC(C)C1=NN(c2ccc(F)c(Cl)c2)C(=O)C1=Cc1cc(O)c(O)cc1O` [compound 515, 4-(2,4,5-Trihydroxybenzylidne)-1-(3-chloro-4-fluorophenyl)-3-isopropyl-2-pyrazolin-5-one], in assay [1] (25 μM test compound), the “Inhibitory Ratio at 25 μM (%)” value is listed as above 99%. Moreover, the IC50 in assay [1] came out at 0.5 µM. For the same compound, the “inhibition” value in assay [2] was “completely inhibited”.

The values are drawn from US20070276011A1, “Plasminogen Activator Inhibitor-1 Inhibitor” (priority 2003, published 2007).
